According to patent publication US20110160594A1 (priority 2008, published 2011):

Tested on: Pyricularia oryzae
Format: cell-based
Conditions: liquid culture, incubation with compound 24-48 h

Compound	branch of the dendrogram of IR spectra (FIG. 8)
Fc1ccc([C@]2(Cn3cncn3)O[C@H]2c2ccccc2Cl)cc1 (racemic) [epoxiconazole]	third branch of the dendrogram
CO/C=C(/C(=O)OC)c1ccccc1Oc1cc(Oc2ccccc2C#N)ncn1 [azoxystrobin]	clustered together in the second branch
CCCCC(C#N)(Cn1cncn1)c1ccc(Cl)cc1 (stereo not drawn) [myclobutanil]	third branch of the dendrogram
CNC(=O)/C(=N/OC)c1ccccc1CO/N=C(C)/C(=N/OC)C(/C)=N/OC [orysastrobin]	clustered together in the second branch
COC(=O)N(OC)c1ccccc1COc1ccn(-c2ccc(Cl)cc2)n1 [pyraclostrobin]	clustered together in the second branch
propioconazole	third branch of the dendrogram
